Patent US9226929B2, “Pharmaceutically active disubstituted triazine derivatives” (Bayer Intellectual Property GMBH, priority 2011, dated 2016)

Key:
[1] = molecular target: T1, CDK9/Cyclin T1 (Homo sapiens, UniProt P50750); assay: LanthaScreen Eu Kinase Binding Assay, CDK9/Cyclin T1; settings: tracer 236, read-out: CDK9/Cyclin T1 (activity range), Kd
T1 construct: His; purchased Invitrogen
Outline: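 TR-FRET displacement of an Alexa Fluor 647 active-site tracer, detected with a Eu anti-GST antibody, over an 8-point 1:3 compound series. Tracer was set at its Kd (30 nM for CDK2/Cyclin A, CDK7 and CDK9/Cyclin T1; 35 nM for CDK9/Cyclin K). Read after 1 h at room temperature; Kd was fitted from sigmoidal curves.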

[2] = molecular target: T2, CDK4/CyclinD1 (Homo sapiens, UniProt P11802); assay: Lance Ultra KinaSelect Assay, CDK4; assay type: biochemical; settings: ATP 90 μM; read-out: CDK4 LANCE assay (activity range), IC50
T2 construct: purchased Invitrogen
T2 sequence (P11802 whole entry): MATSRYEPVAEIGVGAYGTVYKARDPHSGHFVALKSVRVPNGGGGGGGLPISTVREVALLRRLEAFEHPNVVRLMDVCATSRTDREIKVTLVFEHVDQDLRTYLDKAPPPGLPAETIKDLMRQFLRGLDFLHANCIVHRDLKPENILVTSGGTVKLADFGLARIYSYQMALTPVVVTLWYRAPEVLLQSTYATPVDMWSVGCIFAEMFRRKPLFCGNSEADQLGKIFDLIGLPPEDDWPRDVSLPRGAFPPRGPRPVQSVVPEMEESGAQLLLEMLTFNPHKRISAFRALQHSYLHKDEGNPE
T2 sequence (P24385 whole entry partner): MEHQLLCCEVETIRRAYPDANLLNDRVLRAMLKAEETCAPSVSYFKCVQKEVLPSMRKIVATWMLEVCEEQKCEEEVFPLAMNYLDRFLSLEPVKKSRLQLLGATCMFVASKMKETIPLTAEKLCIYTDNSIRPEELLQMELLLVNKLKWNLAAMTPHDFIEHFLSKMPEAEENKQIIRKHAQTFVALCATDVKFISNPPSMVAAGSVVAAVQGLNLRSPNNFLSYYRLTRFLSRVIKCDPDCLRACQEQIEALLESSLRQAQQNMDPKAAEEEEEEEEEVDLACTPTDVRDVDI
Description: (§1) 2. Measurement of half maximal inhibitory concentration to CDKs This protocol describes how the Lance Ultra KinaSelect Assay was performed to determine half maximal inhibitory concentration (1050) of compounds of general formula (I) and CDK/Cyclin complexes. The principle behind this enzymatic assay is based upon the phosphorylation of the ULight-Peptide Substrat. It is detected by using a specific
(§2) EU-labeled anti-phospho peptide antibody. The binding of the Eu-labeled anti-phospho peptide antibody to the phosphorylated ULight labeled peptide gives rise to a FRET-signal. Binding of an inhibitor to the kinase prevents phosphorylation of the ULight-MBP Substrat, resulting in a loss of FRET.
(§3) The compounds of general formula (I) summarized in Table 5 were diluted from a 10 mM DMSO stock solution 1:10 in a total volume of 15 μL DMSO. This compound predilution was then serial diluted 1:3 over 8 steps in DMSO and briefly spun down. Each compound solution was now diluted 1:20 in Enzymatic Buffer (HEPES: 50 mM, pH: 7.5; MgCl2: 10 mM; EGTA: 1 mM; DTT: 2 mM; Tween-20: 0.01%), mixed thoroughly and spun down. For every sample, 2 μL of the diluted compound were mixed with 6 μL CDK/Cyclin/Substrat solution and 2 μL ATP solution in a well of a small volume 384 well plate (Corning Incorporated, Corning, N.Y., USA; order no. 3673). The CDK/Cyclin was diluted to the appropriate concentration (see Table 3) and the ATP concentration was adjusted to its […] for the CDK/Cyclin, which was 3 μM for CDK2/Cyclin A, 20 μM for CDK1/Cyclin B1, 25 μM for CDK7/Cyclin H and CDK9/Cyclin T1, 55 μM for CDK6/Cyclin D3, 90 μM for CDK4/Cyclin D1 and 125 μM for CDK9/Cyclin K. For negative controls, in each well 2 μL of DMSO solution (1% final DMSO assay concentration) was mixed with 6 μL substrate solution (50 nM ULight MBP final assay concentration) and 2 μL ATP solution (appropriate final concentration see Table 3). For positive controls, in each well 2 μL of DMSO solution (1% final DMSO assay concentration) was mixed with 6 μL CDK/Cyclin/Substrat (appropriate final concentration see Table 3) and 2 μL Tracer ATP solution (appropriate final concentration see Table 3). Positive and negative controls were calculated from at least 8 different sample wells. The 384 well plates were mixed in a Teleshaker plate mixer (Beckman Coulter, Brea, Calif., USA) at 2000 rpm for 40 sec, and incubated for 1 h at room temperature. Before reading, 10 μL the detection buffer (Lance Detection Buffer 1×; EDTA: […]; Eu-Anti-P-MBP: see Table 3) was added. The FRET signal was measured at 340 nm excitation, 665 nm and 615 nm emission (for the kinase tracer and LanthaScreen Eu-AB, respectively) with an Envision spectrophotometer (Perkin Elmer, Waltham, Mass., USA) with 50 μs delay and 300 μs integration time. IC50 values were determined from the sigmoidal dose response curves with the software Quattro Workflow (Quattro GmbH, Munich, Germany).

[3] = molecular target: T3, CDK6/CyclinD3 (Homo sapiens, UniProt Q00534); assay: Lance Ultra KinaSelect Assay, CDK6; assay type: biochemical; settings: ATP 55 μM; read-out: CDK6 LANCE assay (activity range), IC50
T3 construct: purchased Carna
T3 sequence (Q00534 whole entry): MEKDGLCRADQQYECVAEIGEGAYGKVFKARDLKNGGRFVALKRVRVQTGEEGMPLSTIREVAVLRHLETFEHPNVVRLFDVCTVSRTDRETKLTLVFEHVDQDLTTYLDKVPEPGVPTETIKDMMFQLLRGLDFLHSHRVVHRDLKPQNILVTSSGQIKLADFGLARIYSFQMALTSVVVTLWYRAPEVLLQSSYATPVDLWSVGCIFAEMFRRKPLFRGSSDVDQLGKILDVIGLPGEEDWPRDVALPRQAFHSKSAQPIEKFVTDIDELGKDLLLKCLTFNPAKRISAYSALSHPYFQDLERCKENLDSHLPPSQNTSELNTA
T3 sequence (P30281 whole entry partner): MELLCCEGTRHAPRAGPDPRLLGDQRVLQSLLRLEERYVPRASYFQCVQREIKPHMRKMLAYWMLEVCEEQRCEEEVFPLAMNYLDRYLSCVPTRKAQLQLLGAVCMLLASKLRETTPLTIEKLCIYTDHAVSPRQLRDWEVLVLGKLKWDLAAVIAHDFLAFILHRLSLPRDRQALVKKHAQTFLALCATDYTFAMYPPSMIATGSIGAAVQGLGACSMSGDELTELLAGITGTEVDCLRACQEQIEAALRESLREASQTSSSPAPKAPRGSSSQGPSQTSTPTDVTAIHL
Description: as §1, §2, §3

[4] = molecular target: T4, CDK9 (Homo sapiens, UniProt P50750); assay: Lance Ultra KinaSelect Assay, CDK9; assay type: biochemical; settings: cyclin partner (T1 or K) not stated; read-out: CDK9 LANCE assay (activity range), IC50
T4 construct: purchased Invitrogen
T4 sequence (P50750 whole entry): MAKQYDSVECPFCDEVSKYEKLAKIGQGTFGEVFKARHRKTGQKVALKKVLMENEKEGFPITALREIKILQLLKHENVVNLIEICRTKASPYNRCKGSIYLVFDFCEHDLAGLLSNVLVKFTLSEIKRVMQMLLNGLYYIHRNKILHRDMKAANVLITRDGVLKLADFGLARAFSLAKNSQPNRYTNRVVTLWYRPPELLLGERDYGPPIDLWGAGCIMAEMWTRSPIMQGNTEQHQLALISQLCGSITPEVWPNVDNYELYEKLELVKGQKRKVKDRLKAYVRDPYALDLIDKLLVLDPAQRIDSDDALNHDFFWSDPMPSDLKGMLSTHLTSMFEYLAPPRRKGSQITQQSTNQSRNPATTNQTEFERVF
Description: as §1, §2, §3

T1 sequence (P50750 whole entry): as above
T1 sequence (O60563 whole entry partner): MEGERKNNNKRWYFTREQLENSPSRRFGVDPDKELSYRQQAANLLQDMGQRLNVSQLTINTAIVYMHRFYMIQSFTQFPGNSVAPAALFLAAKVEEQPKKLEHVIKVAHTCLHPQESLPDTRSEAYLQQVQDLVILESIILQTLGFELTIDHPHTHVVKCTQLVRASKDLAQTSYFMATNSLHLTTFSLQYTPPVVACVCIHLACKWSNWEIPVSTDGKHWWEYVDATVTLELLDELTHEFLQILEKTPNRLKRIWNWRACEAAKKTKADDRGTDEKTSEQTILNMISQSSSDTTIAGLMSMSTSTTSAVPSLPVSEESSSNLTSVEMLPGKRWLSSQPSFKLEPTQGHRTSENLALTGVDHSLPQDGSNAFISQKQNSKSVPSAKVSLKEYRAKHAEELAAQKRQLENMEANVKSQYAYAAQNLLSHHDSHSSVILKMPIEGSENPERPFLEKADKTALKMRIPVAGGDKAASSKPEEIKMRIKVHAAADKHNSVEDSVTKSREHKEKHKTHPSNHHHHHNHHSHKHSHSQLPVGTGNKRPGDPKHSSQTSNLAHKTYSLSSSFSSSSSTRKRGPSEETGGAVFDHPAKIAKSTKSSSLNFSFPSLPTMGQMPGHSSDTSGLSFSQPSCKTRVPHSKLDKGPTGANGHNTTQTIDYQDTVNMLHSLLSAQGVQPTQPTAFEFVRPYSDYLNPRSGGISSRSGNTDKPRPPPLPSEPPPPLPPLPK

Structure (SMILES) | Kd [1] [nM] | IC50 [2] [nM] | IC50 [3] [nM] | IC50 [4] [nM]
NS(=O)(=O)Cc1cccc(Nc2ncnc(N3CCCC3c3ccccc3)n2)c1 (racemic) [Compound B33, rac-3-[(4-(2-Phenylpyrrolidin-1-yl)-1,3,5-triazin-2-yl)amino]-benzenemethanesulfonamide] | < 100 | > 10000 | > 10000 | 100 to 1000
NS(=O)(=O)Cc1cccc(Nc2ncnc(N3CCCCC3)n2)c1 [Compound B1, 3-[(4-(Piperidin-1-yl)-1,3,5-triazin-2-yl)amino]benzenemethane sulfonamide] | 100 to 1000 | > 10000 | > 10000 | 1000 to 10000
COC[C@H]1CCCN1c1ncnc(Nc2cccc(CS(N)(=O)=O)c2)n1 [Compound B17, (R)-3-[(4-(2-(Methoxymethyl)pyrrolidin-1-yl)-1,3,5-triazin-2-yl)amino]benzenemethanesulfonamide] | < 100 | > 10000 | > 10000 | 100 to 1000
COC(=O)[C@H]1CCCN1c1ncnc(Nc2cccc(CS(N)(=O)=O)c2)n1 [Compound B21, (R)-Methyl 1-[4-((3-(Sulfamoylmethyl)phenyl)amino)-1,3,5-triazin-2-yl]pyrrolidine-2-carboxylate] | < 100 |  |  | 100 to 1000
NS(=O)(=O)Cc1cccc(Nc2ncnc(N3CCc4ncccc4C3)n2)c1 [Compound B38, 3-[(4-(7,8-Dihydro-1,6-naphthyridin-6(5H)-yl)-1,3,5-triazin-2-yl)amino]-benzenemethanesulfonamide] | < 100 | > 10000 | > 10000 | < 100
NS(=O)(=O)Cc1cccc(Nc2ncnc(N3CCc4nc[nH]c4C3)n2)c1 [Compound B44, 3-[(4-(6,7-Dihydro-3H-imidazo[4,5-c]pyridin-5(4H)-yl)-1,3,5-triazin-2-yl)amino]benzenemethanesulfonamide] | < 100 |  |  | < 100
NS(=O)(=O)Cc1cccc(Nc2ncnc(N3CCc4ncsc4C3)n2)c1 [Compound B45, 3-[(4-(6,7-Dihydrothiazolo[5,4-c]pyridin-5(4H)-yl)-1,3,5-triazin-2-yl)amino]benzenemethanesulfonamide] | < 100 |  |  | < 100
NS(=O)(=O)Cc1cccc(Nc2ncnc(N3CCCn4nccc43)n2)c1 [Compound B47, 3-[(4-(6,7-Dihydropyrazolo[1,5-a]pyrimidin-4(5H)-yl)-1,3,5-triazin-2-yl)amino]benzenemethanesulfonamide] | < 100 | 1000 to 10000 | 1000 to 10000 | < 100
NS(=O)(=O)Cc1cccc(Nc2ncnc(N3Cc4cn[nH]c4C3)n2)c1 [Compound B51, 3-[(4-(Pyrrolo[3,4-c]pyrazol-5(1H,4H,6H)-yl)-1,3,5-triazin-2-yl)amino]-benzenemethanesulfonamide] | < 100 | > 10000 | > 10000 | < 100
